{"source": "patent US20040116397A1", "about": "“Agents and methods for the prevention of initial onset of cancers, the treatment of cancers, and the recurrence of existing cancers” (priority 2003, published 2004)", "key": {"epidermal hyperplasia": {"test_system": "epidermal hyperplasia", "assay": "Mouse two-stage carcinogenesis model (DMBA/TPA), skin hyperplasia", "assay_type": "in vivo", "conditions": "4 weeks, Sencar mice", "from_the_text": "To test the efficacy of 2-ME in preventing or reversing neoplastic progression, the present inventors have conducted investigations using the well-established mouse two-stage carcinogenesis model. This model was developed to study the complex multistep process of epidermal carcinogenesis since initiation and promotion are involved in the development of cancer in humans. […] Although treatment of mouse skin with a single large dose of DMBA can induce papillomas in about 10-20 weeks and carcinomas in about 20-60 weeks, repetitive doses are necessary to induce tumors at lower levels. No tumors are formed at a sub-threshold dose of DMBA. However, if TPA is applied to the mice initiated with a sub threshold dose of DMBA, multiple papillomas appear after a short latency period, followed by squamous cell carcinomas after a longer period. Tumors cannot be induced with repetitive treatment of TPA in the absence of initiation. Such phenotypic changes produced in the epidermis by TPA treatment are critical for neoplastic progression. One such characteristic feature of neoplastic progression is hyperplasia.\nFemale Sencar mice were divided into 7 groups each with 5 animals. […]"}, "p53 in LNCaP cells": {"test_system": "p53 in LNCaP cells", "assay": "p53 EMSA and Western blot of whole cell extracts", "assay_type": "cell-based", "experimental": "(§1) FIG. 4 depicts an electrophoretic mobility shift assay (EMSA) of whole cell extracts (prepared from LNCaP and DU145 cells that were untreated (C) or treated (T) with 3 μM 2-ME for 48 h) using p53 consensus oligonucleotide as radiolabled probe. The indicated amounts (μg) of the extract was incubated with approximately 0.2 ng of labeled probe and the DNA-protein complexes were resolved by 4% non-denaturing gel electrophoresis. Unbound (F) and bound complexes (B) are indicated. Lane 1 is free probe; lane 2, 4, 6 and 8 are with 2.5 μg protein; lanes 3, 5, 7 and 9 are with 5 μg protein. Lanes 2, 3, 6 and 7 are untreated; lanes 4, 5, 8 and 9 are treated.\nFIG. 5 depicts a Western blot analysis of whole cell extracts from LNCaP and DU145 cells following treatment with 2-ME for 48 hours using a p53 antibody (FL-393, Santa Cruz). 25 μg of extract was fractionated on 10% denaturing gel and transferred to nitrocellulose membrane. After blocking the membrane, it was incubated for 2 hours with the p53 antibody. This was followed by incubation with horseradish peroxidase-conjugated anti-rabbit IgG antibody (Sigma) in the blocking solution. Bound antibody was detected by Supersignal West Pico Chemiluminescent Substrate, following the manufacturer's directions (Pierce, Rockford, Ill.). […]"}, "DMBA-TPA induced tumors": {"test_system": "DMBA-TPA induced tumors", "assay": "Regression of DMBA-TPA induced tumors in mice", "assay_type": "in vivo, mouse", "conditions": "2 mg topically twice a week for four weeks", "experimental": "Referring to FIG. 12, after 4 weeks, animals were sacrificed and the dorsal skin was used for histology. […] In addition, topical application of 2 mg of 2-ME during tumor initiation-promotion stage inhibited hyperplasia by about 14%. […] In addition, the present inventors have treated mice that have developed the tumors using DMBA-TPA protocol with 2 mg of 2-ME topically twice a week for four weeks to see if tumors regress. During this four-week study, we have noticed that the number of tumors reduced from 10 to 8 in one animal (one such tumor is indicated by an arrow in the mouse II—see FIG. 13) and no change in the other animal."}, "DU145 cells [1]": {"test_system": "DU145 cells", "assay": "Cell growth, CELLTITER96 AQUEOUS ONE tetrazolium assay", "assay_type": "cell-based", "experimental": "(§2) Referring to FIG. 1, actively growing LNCaP and DU145 cells were plated in 96-well plates at a density of 10^5 cells per well. After 24 hours in a 37° C. incubator with 5% CO2, the cells were treated with the indicated concentration of 2-ME. Control cells received only the vehicle (DMSO). Cell growth was monitored every 24 hours using the […]96 AQUEOUS ONE solution assay containing a tetrazolium compound (Promega Corporation, Madison, Wis.).\n(§3) The assay is based on the principle that actively growing cells generate reducing equivalents such as NADH that is necessary for the cells to reduce the tetrazolium compound to formazan product that is detected by measuring the absorbance at […]. Increase in absorbance indicates cell viability.\n(§4) The data reflected in FIG. 1 represents an average of five replicates and the experiment was conducted twice. […] It is known that there are differences of AR and p53 between these two cell types."}, "LNCaP cells": {"test_system": "LNCaP cells", "assay": "Cell growth, CELLTITER96 AQUEOUS ONE tetrazolium assay", "assay_type": "cell-based", "conditions": "for inhibition of growth: 72 hours", "experimental": "as §2, §3, §4\nCells were treated with either eugenol (0.25, 0.5, 0.75 or 1 mM) or 2-ME (0.5, 1, 2 or 3 mM) or both (0.25, 0.5, 0.75 or 1 mM of eugenol along with 0.5 mM of 2-ME). Cell growth was measured following 72 hours of treatment as described above."}, "DU145 cells [2]": {"test_system": "DU145 cells", "assay": "Cell cycle distribution by flow cytometric analysis (Krishan stain)", "assay_type": "cell-based", "conditions": "DU145, 3 μM, 16 hours", "experimental": "Referring to FIG. 3, since 2-ME inhibited the growth of LNCaP and DU145 cells, the present inventors set out to examine whether 2-ME treatment altered the distribution of cells during cell cycle progression. Logarithmically growing DU145 cells were plated in 60 mm dishes as described above at a density of 10^5 cells per dish. After 24 hours of growth at 37° C. in an incubator with 5% CO2, half the dishes were treated with 3 μM of 2-ME and the other half was left untreated. Cells were observed every 24 hours for morphological changes following treatment with 2-ME. After 16 hours of incubation cells were harvested by trypsinization and the cell pellet was resuspended in 1 ml of Krishan stain and subjected to flow cytometric analysis at the Flow Cytometry facility of the University of Colorado Comprehensive Cancer Center, Denver, Colo. […] This could be due to alteration of expression and/or activities of cell cycle regulatory proteins in the G2/M phase."}, "endothelial cell": {"test_system": "endothelial cell", "conditions": "background, reference (3); cited from earlier work"}, "p53 in DU145 cells": {"test_system": "p53 in DU145 cells", "assay": "p53 EMSA of whole cell extracts", "assay_type": "cell-based", "conditions": "DU145 extract, 3 μM, 48 h", "experimental": "as §1\nAs shown in FIG. 4 (Electrophoretic mobility shift assay (EMSA) of extracts prepared from LNCaP and DU145 cells following treatment with 2-ME using p53 oligonucleotide probe) and FIG. 5 (Western blot analysis of extracts following 2-ME treatment with p53 antibody), the proteins from LNCaP and DU145 cells bound to the p53 consensus sequence (FIG. 4, lanes 2 and 3). […] One would expect to see induced expression of p53 following 2-ME treatment, if it is involved in mediating apoptosis."}, "[3]": {"test_system": "prostate cancer cell lines (LNCaP, DU145) and brain and/or nervous system cancer cell line (DAOY)", "assay": "Cell proliferation and induction of apoptosis, 2-ME versus 16-ES", "assay_type": "cell-based", "from_the_text": "Building on these findings, further experiments have helped to elucidate the structural bases for 2-ME's molecular efficacy. A number of experiments have been conducted using 2-ME and 16-epiestriol (hereinafter “16-ES”), an analogue of 2-ME that lacks the methoxy group at the second position. In a multitude of experiments, using prostate cancer cell lines (both androgen-dependent (LNCaP), and androgen-independent (DU145) cells), and a brain and/or nervous system cancer cell line (DAOY), the present inventors have studied the effects of 2-ME and 16-ES on cell proliferation and the induction of apoptosis, in a number of ways. […] Further, it also indicates efficacy of a series of compounds with various moieties at the second position in the treatment of cancer. […] Thus, the present inventors now propose a method of synthesizing a number of analogues of 2-ME that will exceed the efficacy of 2-ME in the prevention of cancer."}}, "note": "pIC50: −log10 of the molar value. Entries after “also recorded” stand apart in the source; their conditions may differ."}
{"molecule": "COc1cc2c(cc1O)CC[C@@H]1[C@@H]2CC[C@]2(C)[C@@H](O)CC[C@@H]12", "note": "[2-ME, 2-methoxyoestradiol]", "values": [{"measurement": "reduction of hyperplasia", "setting": "epidermal hyperplasia; topical 2 mg 5 min before DMBA application", "value": 26, "unit": "%"}, {"measurement": "inhibition of hyperplasia", "setting": "epidermal hyperplasia; topical 2 mg during tumor initiation-promotion stage", "value": "about 14%"}, {"measurement": "DNA-binding activity to p53 consensus sequence (EMSA)", "setting": "p53 in LNCaP cells; 3 μM, 48 h", "value": "lost their binding activity"}, {"measurement": "p53 expression (Western blot)", "setting": "p53 in LNCaP cells; 48 hours", "value": "decrease in its expression"}, {"measurement": "size of the tumors", "setting": "DMBA-TPA induced tumors", "value": "reduction in the size of the tumors"}, {"measurement": "number of tumors after treatment", "setting": "DMBA-TPA induced tumors; one animal, reduced from 10", "value": 8}, {"measurement": "number of tumors, other animal", "setting": "DMBA-TPA induced tumors; other animal", "value": "no change"}, {"measurement": "inhibition of cell proliferation", "setting": "DU145 cells [1]; DU145, 2-ME 0.5 to 5 μM, monitored every 24 hours, less sensitive than LNCaP", "value": "dose-dependent inhibition of cell proliferation"}, {"measurement": "inhibition of growth", "setting": "LNCaP cells; 0.5 mM of 2-ME", "value": "about 20%"}, {"measurement": "inhibition of cell proliferation", "setting": "LNCaP cells; 2-ME 0.5 to 5 μM, monitored every 24 hours", "value": "dose-dependent inhibition of cell proliferation"}, {"measurement": "population of cells in S phase", "setting": "DU145 cells [2]", "value": "no significant change"}, {"measurement": "G2/M population following treatment", "setting": "DU145 cells [2]; untreated 23%", "value": 46, "unit": "%"}, {"measurement": "G1 population following treatment", "setting": "DU145 cells [2]; untreated 71%", "value": 46, "unit": "%"}, {"measurement": "endothelial cell proliferation", "setting": "endothelial cell", "value": "inhibit endothelial cell proliferation"}, {"measurement": "loss of DNA-binding activity to p53 consensus sequence (EMSA)", "setting": "p53 in DU145 cells", "value": "not as dramatic as that of LNCaP extracts"}, {"measurement": "inhibition of cancerous cell growth", "setting": "[3]", "value": "significantly inhibits cancerous cell growth; also recorded: inhibits the growth"}, {"measurement": "pro-apoptotic effects", "setting": "[3]", "value": "has pro-apoptotic effects"}]}
{"molecule": "C=CCc1ccc(O)c(OC)c1", "note": "[eugenol]", "values": [{"measurement": "pIC50", "setting": "DU145 cells [1]; Homo sapiens, DU-145, DU145 cells, read-out: concentration necessary for 50% inhibition of growth", "value": "< 2.70"}, {"measurement": "inhibition of growth", "setting": "LNCaP cells; 0.25 mM of eugenol", "value": "about 30%"}, {"measurement": "pIC50", "setting": "LNCaP cells; Homo sapiens, read-out: concentration necessary for 50% inhibition of growth", "value": "~3.12"}]}
{"molecule": "C[C@]12CC[C@@H]3c4ccc(O)cc4CC[C@H]3[C@@H]1C[C@H](O)[C@@H]2O", "note": "[16-ES, 16-epiestriol]", "values": [{"measurement": "inhibition of cancerous cell growth", "setting": "[3]", "value": "does not"}]}
